How the values were obtained:
[1] = Oral absorption of formulated tablets of Compound (II) in cyno monkeys (PK); details: cynomolgus monkey, iv, 0.1 mg/kg
Description: (§1) Four coated tablets were added in each #00 gray opaque hard gelatin capsule for the cyno PK study. Each cyno monkey was dosed with 2 capsules (8 coated tablets).
(§2) Fasted male cyno monkeys (n=3) were dosed by oral route followed by gavage flush with water to facilitate gastro-intestinal dissolution. Blood samples were taken at predetermined times over 72 hours post-dose to measure comparative pharmacokinetics between the formulations. Due to the long half-life these were conducted in a parallel group design in different sets of cyno monkeys.

in vivo [2] = details: dog, iv, 10 mg
Description: Dogs were administered formulations as follows: • 2×50 mg tablets with 10% API (Example 10, 88.6 mg dose after API potency correction) • 10×10-mg tablets with 10% API (Example 11, 88.6 mg dose after API potency correction) • 5×10 mg tablets with 10% API (Example 11, 44.3 mg dose after API potency correction) and 5 placebo tablets with enhancer only. • 10×5 mg tablets with 5% API (44.3 mg dose after API potency correction) • 40×2.5 mg tablets with 10% API (Example X, 100 mg dose after potency correction)

[3] = Oral absorption of prepared formulations of Compound (II) in dogs (Example 10, 70 mg); details: beagle, dog, blood, iv, 10 mg
Description: (§3) Fasted pentagastrin-pretreated male beagle dogs (n=4) were dosed by oral route followed by gavage flush with water to facilitate gastro-intestinal dissolution. Blood samples were taken at predetermined times over 72 hours post-dose to measure comparative pharmacokinetics between the formulations. Due to the long half-life these were conducted in a parallel group design in different sets of dogs.

in vivo [4] = details: cynomolgus monkey, iv
Description: as §1, §2

in vivo [5] = details: beagle, dog, iv, 10 mg
Description: as §3

[6] = rat, in vivo
Description: The study was run as a two-treatment, two-segment, parallel study in anesthetized, fasted, male Sprague Dawley rats (rat weight: ˜300 g) with 4 rats per group.
For duodenal absorptional testing, the rats were ligated at pylorus (proximal) and the subject formulation was injected directly into duodenum 5 cm past pylorus ligation (about 15 cm from the pylorus) and the distal part of the segment was ligated to contain drug in intestinal segment.
Samples of the dosed solution from gastric and duodenal segments were extracted at 60 min to measure remaining drug concentrations.

[7] = cynomolgus monkey, in vivo, iv, 0.1 mg/kg
Description: as §1, §2

in vivo [8] = details: beagle, dog, iv, 10 mg; remark: listed apart in the source
Description: as §3

SMILES: CCCC[C@H]1C(=O)N(C)[C@@H](CCCC)C(=O)N[C@@H](CC(C)C)C(=O)N[C@H](C(=O)NCC(=O)N[C@@H](Cc2cn(CCOCCOCCCOCCCOCCOCCOCCOCCOCCOCCOCCOCCNC(=O)CC[C@H](NC(=O)CCCCCCCCCCCCCCCCC(=O)O)C(=O)O)nn2)C(=O)O)CSCC(=O)N[C@@H](Cc2ccc(O)cc2)C(=O)N(C)[C@@H](C)C(=O)N[C@@H](CC(N)=O)C(=O)N2CCC[C@H]2C(=O)N[C@@H](CN)C(=O)N[C@@H](CC(C)C)C(=O)N2C[C@H](O)C[C@H]2C(=O)N[C@@H](Cc2c[nH]c3ccccc23)C(=O)N[C@@H](CCN)C(=O)N[C@@H](Cc2cn(CC(=O)O)c3ccccc23)C(=O)N1C [Compound (II)]
- AUC(0-inf) ([1]; blood): 52 µM·h
- AUC(0-t) ([1]; in vivo): 47.6 µM·h
- Cmax ([1]; in vivo): 0.798 µM
- Cmax (in vivo [2]): 25500 ng/mL
- Tmax (in vivo [2]): 12 min
- AUC(0-t) (in vivo [2]; AUC0-24 h (ng · h/mL) Mean): 376 µg·h/mL
- AUC(0-t) (in vivo [2]; AUC0-72 h (ng · h/mL) Mean): 833 µg·h/mL
- AUC(0-inf) [3]: 402 µM·h
- Cmax [3]: 8.55 µM
- Tmax (in vivo [4]; 0.1 mg/kg): 18 min
- level at time molar at 24 h (in vivo [4]; 0.1 mpk): 0.544 µM
- AUC(0-inf) (in vivo [5]): 402 µM·h
- Cmax (in vivo [5]): 8.55 µM
- Tmax (in vivo [5]): 12 min
- AUC(0-t) (in vivo [5]; AUC0-24 h (nM · h) Mean): 126 µM·h
- AUC(0-t) (in vivo [5]; AUC0-t (nM · h)* Mean): 322 µM·h
- systemic absorption, intestinal compartment compared to the gastric compartment [6]: good systemic absorption
- BA (%) using AUCInf Mean [7]: 100.00%
- Tmax (in vivo [8]): 12 min

Source: patent US20250213548A1, “PHARMACEUTICAL COMPOSITIONS FOR IMPROVING ORAL BIOAVAILABILITY” (Bristol-Myers Squibb Company, priority 2022, published 2025)
